According to EP0237348A1, “Cell protection” (THE WELLCOME FOUNDATION LIMITED, priority 1986, dated 1987):

Tested on: Myocaridal infarct size
Test: Myocardial infarct size after 90 minute LAD occlusion and reperfusion in anaesthetized dogs (ex vivo TTC / Evans blue dual perfusion)
Design: species or system Male beagle dogs
Details: for % Area at Risk * Infarcted: 10 mg/kg intravenously over five minutes beginning fifteen minutes prior to reperfusion, 90 minute LAD occlusion, infarct quantified 24 hours after occlusion, means ± standard error
Description: Male beagle dogs (10-12 kg) were anaesthetized with pentobarbital sodium, intubated, and ventilated with room air via a Harvard respirator. Catheters for infusion and arterial blood pressure measurements were implanted in the left jugular vein and left carotial artery. A thoracotomy was performed at the fourth intercostal space, the heart suspended in a percardial cradle and the left anterior descending artery (LAD) isolated just below the first major diagonal branch. An electromagnetic flow probe was placed on LAD. A 90 minute occlusion of the LAD was produced by placing a snare of 1/0 silk sutre distel to the flow probe. Treatment was initiated intravenously fifteen minutes prior to release of this snare occlusion and continued for 45 minutes after release. The thoracotomy was closed, and the animals were allowed to recover from the surgical procedures. The animals were reanaesthetized 24 hours after the occlusion, and the flow in the LAD reassessed. Then the heart was removed for post mortem quantification of infarct size.
Three groups of dogs were evaluated. Group 1 consisted of saline controls. Group 2 were administered allopurinol and group 3 were administered oxypurinol. Allopurinol and oxypurinol were dissolved, separately, in O.I.N. sodium hydroxide and back-titrated to pH 9.3. The formulations were adminstered intravenously over five minutes beginning fifteen minutes prior to reperfusion.
Myocaridal infarct size was quantified by an ex vivo dual reperfusion technique. Cannulas were inserted into the LAD immediately distel to the site of occlusion and into the aorta above the coronary ostia. The LAD coronary bed that was perfused with 1.5% triphenyl tetrazolium hydrochloride (TTC) in 0.02 M potassium phosphate buffer, pH 7.4. The aorta was perfused in a retrograde manner with 0.5% Evans blue dye. Both regions ere perfused with their respective stains at a constant pressure of 100 mm mercury for five minutes. The heart was cut into 8 mm slices perpendicular to the apex-base axis. The area of the left ventrical at risk of infarction due to aatomical dependence on the LAD for blood flow is identified by the lack of Evans blue in this region. The region of infarcted myocardium within the area was demarcated by the lack of staining of the tissue when perfused with TTC due to a loss of dehydrogenase enzymes.
The transverse ventricular sections were traced carefully on to clear acrylic overlays to provide a permanent record of infarcted methology and to allow planimetric confirmation of infarct size. Ventricular sections then were trimmed of right ventricular muscle, valvular, and fatty tissue. Total left ventricular, area at risk, and infarct was separated by careful dissection and weighted. Infarct size was expressed as a percentage of the anatomic area at risk. […]

Row | SMILES | Reduction of area at risk (infarcted) compared with saline and allopurinol (10 mg/kg i.v. fifteen minutes prior to reperfusion, significance criterion p less than 0.05 (ANOVA, Bonferroni)) | % Area at Risk * Infarcted | Reducing cellular injury when administered after ischemia (and before reperfusion) (administered after ischemia and before reperfusion, summary statement)
1 | O=c1[nH]c(=O)c2c[nH]nc2[nH]1 [Oxypurinol, 4,6-dihydroxypyrazola(3,4-d)pyrimidine] | significantly reduced | 19.0 ± 1.7% | effective
2 | Oc1ncnc2[nH]ncc12 [Allopurinol] |  | 43.1 ± 6.1% | 
